# Reference: US9878984B2, “Anti-cancer compounds” (NORTHWESTERN UNIVERSITY, priority 2008, dated 2018)
# Entries after “also recorded” stand apart in the source; their conditions may differ.
# Experiments:
# Assay type in all cases: cell-based, human
# [1] = tested on: Normal cells (PBMC, HUVEC, and WI-38); assay: Cancer cell selective growth inhibition (cancer cells vs normal cells); conditions: 72 hr MTS
# Experimental: […] Peripheral blood mononuclear cells (PBMCs) were voluntarily collected from a healthy laboratory worker by standard sterile phlebotomy techniques and isolated using Vacutainer CPT collection tubes (BD Biosciences—Bedford, Mass.). PBMCs were isolated freshly for each experiment. All DMEM and RPMI-1640 media was supplemented with 10% FBS (Atlanta Biologicals—Lawrenceville, Ga.) and 100 U/mL penicillin and streptomycin (Invitrogen). HUVEC (Human umbilical vein endothelial cells) were cultured in EGM-2 media with supplements provided in the manufacturers BulletKit (Lonza—Walersville, Md.). All cells were maintained at 37° C. and in a 5% CO2 atmosphere.
# Growth Inhibition Assays: HeLa, MDA-MB-231, PC-3M, WI-38, and HUVEC cells were plated at 5,000 cells per well in 96 well plates and allowed to attach for 20 hr (8 hr for HeLa). The media was removed and 198 μL of fresh media was added to each well. […] PBMCs were isolated and plated at 100,000 per well in 96 well plates with a volume of 197 μL. They were allowed to settle in the media for 20 hr, at which point 1 μL of 1 mg/mL phytohemagglutinin (Sigma—St. Loius Mo.) in PBS was added to stimulate proliferation (final concentration of 5 μg/mL). […] Cell proliferation was measured at t=0 (time at start of treatment) and t=72 hr using MTS AQueous non-radioactive proliferation assay (Promega—Madison, Wis.). This assay utilizes the metabolic conversion of yellow tetrazolium to a purple formazan by live cells and the color change is proportional to the number of cells. […] The absorbance at 490 nm in each well was read with a Spectramax 250 plate reader (Molecular Devices—Sunnyvale, Calif.). […] Data were fit to one site dose response curves in order to obtain specific growth inhibitory concentrations and the relative standard errors of the mean for these concentrations were calculated by the XLfit4 software. Statistical significance (p value) for the selectivity and all subsequent assays was determined with the two tailed homoscedastic Student's t-test. […]
# [2] = tested on: HeLa cells; assay: Transwell invasion assay; conditions: [GI99%], matrigel, 20 hr
# Experimental: Transwell Invasion Assay: HeLa cells were plated at 250,000 per 35 mm well and allowed to attach for 8 hr. The cells were washed with PBS and then treated for 4 hr with the [GI99%] of each compound (or 1% DMSO—vehicle control) in serum free media to decrease the number of invading cells in the beginning of the experiment due to a preliminary lack of drug exposure. The cells were then trypsinized and counted by trypan blue exclusion with a hemacytometer (Sigma—St. Louis, Mo.). Eight micron pore size control well inserts for 12 well plates (BD Biosciences) were coated with 100 μL 1 mg/mL matrigel (Sigma—St. Louis, Mo.) and allowed to solidify at room temperature for 1 hr. The excess matrigel was aspirated and the inserts were gently washed with PBS. The cells were seeded at a density of 300,000 per insert well in a volume of 500 μL serum free media containing a derivative or vehicle. The inserts were then placed in wells containing 700 μL serum free media with the respective compound. After 20 hr the cells on the top of the membranes were gently removed with a cotton swab, the membranes then were fixed in methanol for 1 min, stained in Gills No. 3 Hematoxylin (Sigma—St. Louis, Mo.) for 5 min, rinsed in tap water, and allowed to dry overnight. The membranes were excised, mounted on slides, and the cells were counted under the 40× objective of a bright field microscope. The data are expressed as the average total number of invading cells counted in 20 fields of each membrane, as standardized to the vehicle control, from six experiments.
# Effect of derivatives on the malignant phenotype—invasion assay: If A1-A9 have differential targets, DNA binding specificity, or downstream effects they may differentially alter the malignant behavior of cells. Also, anti-cancer compounds can be efficacious against tumors in other ways besides inhibiting growth and inducing death of cancer cells; they can also alter the behavior of malignant cells. Therefore, the ability of A1-A9 and amonafide to alter the invasive behavior of cancer cells in a transwell (also known as Boyden chamber) invasion assay was evaluated, which determines the ability of cells to migrate through a proteinacious gel. This behavior is considered to be representative of cancer cell invasion through the basement membrane of the primary tumor environment. In this assay, treated cells are seeded on to the top of the matrigel-coated porous membrane, allowed to invade through the proteinacious gel onto the underside of the membrane, and then counted.
# [3] = tested on: HeLa cells; assay: Perinucleolar compartment (PNC) prevalence reduction; conditions: for PNC prevalence reduction at [GI50%]: [GI50%] for 72 hr
# Experimental: Perinucleolar Compartment (PNC) Reduction: HeLa cells (PNC prevalence ˜85%) were plated 5,000/well in glass bottom 96 well plates and allowed to attach for 8 hr. The cells were then treated with compounds at the respective [GI50%] for 72 hr and [GI99%] for 20 hr for each compound (total media volume was 200 μL/well with 1% DMSO). After treatment cells were immunofluorescently stained as previously described, but with a Texas Red labeled secondary antibody (Jackson) instead of a FITC labeled secondary antibody. PNC prevalence (% of non-apoptotic/non-mitotic cells with 1 or more PNCs) was determined by scoring >200 cells per well with fluorescent microscope (60× objective) and images were acquired with the digital camera and image acquisition software previously mentioned. Scale bar=10 μm. Data are expressed as the average PNC prevalence (% control) of three individual experiments.
# The PNC is a unique structural marker that it is only found in malignantly transformed cancer cells, irrespective of tissue origin, and indicates cells that are capable of metastasis. […] Previous studies indicate that the PNC likely conveys a functional metastatic advantage to cancer cells. The PNC prevalence (% of cells with one or more PNC) in human breast cancer positively correlates with the progression of the disease and is always near 100% in distant metastases. […] The PNC prevalence reduction was determined for amonafide and A1-A9 at the respective [GI50%] and [GI99%] doses in HeLa cells, which have a high PNC prevalence of ˜85%.
Compound,cancer cell selective growth inhibition (selectivity) [1],invasive behavior (% invading cells vs vehicle) [2],PNC prevalence reduction at [GI50%] [3],PNC prevalence reduction at [GI99%] ([3]; [GI99%] for 20 hr)
"CN(C)CCN1C(=O)c2cccc3c(N)ccc(c23)C1=O [A1, 6-amino-2-[2-(dimethylamino)ethyl]-1H-benz[de]isoquinoline-1,3(2H)-dione]",near identical to amonafide,did not significantly alter the invasive behavior of HeLa cells compared to the control,able effectively reduce the PNC; also recorded: can significantly reduce PNC prevalence,
"CN(C)CCN1C(=O)c2cccc3cc(N)cc(c23)C1=O [amonafide, reference compound]",slightly more potent (but not with statistical significance) or equally potent at inhibiting the growth of cancer cells over normal cells,did not significantly alter the invasive behavior of HeLa cells compared to the control,able effectively reduce the PNC; also recorded: can significantly reduce PNC prevalence,able to greatly reduce the PNC prevalence
